Results as given in patent US6737383B1, “Herbicidal oxadiazolidines” (priority 1999, dated 2004).

Experiments:
bedstraw = assay: Test B pre/postemergence bedstraw; assay type: in vivo, Galium aparine
Summary of the method: (§1)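 Test chemicals in a non-phytotoxic solvent mixture with surfactant were sprayed preemergence onto planted seeds and postemergence onto plants 2 to 18 cm tall (1- to 4-leaf stage). After twelve to sixteen days in a greenhouse, injury was visually rated against untreated controls from 0 (no effect) to 10 (complete control).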

blackgrass = assay: Test B pre/postemergence blackgrass; assay type: in vivo, Alopecurus myosuroides
Summary of the method: as §1

surinam grass = assay: Test B pre/postemergence surinam grass; assay type: in vivo, Brachiaria decumbens
Summary of the method: as §1

corn = assay: Test B pre/postemergence corn; assay type: in vivo, Zea mays
Summary of the method: as §1

crabgrass = assay: Test B pre/postemergence crabgrass; assay type: in vivo, Digitaria sanguinalis
Summary of the method: as §1

pigweed = assay: Test B pre/postemergence pigweed; assay type: in vivo, Amaranthus retroflexus
Summary of the method: as §1

rape = assay: Test B pre/postemergence rape; assay type: in vivo, Brassica napus
Summary of the method: as §1

soybean = assay: Test B pre/postemergence soybean; assay type: in vivo, Glycine max
Summary of the method: as §1

sugar beet = assay: Test B pre/postemergence sugar beet; assay type: in vivo, Beta vulgaris; conditions: for Plant response rating, Sugarbeets: Rate 250 g/ha
Summary of the method: as §1

velvetleaf = assay: Test B pre/postemergence velvetleaf; assay type: in vivo, Abutilon theophrasti; conditions: for Plant response rating, Velvetleaf: Rate 250 g/ha
Summary of the method: as §1

wheat = assay: Test B pre/postemergence wheat; assay type: in vivo, Triticum aestivum; conditions: for Plant response rating, Wheat: Rate 250 g/ha
Summary of the method: as §1

wild oat = assay: Test B pre/postemergence wild oat; assay type: in vivo, Avena fatua; conditions: for Plant response rating, Wild oats: Rate 250 g/ha
Summary of the method: as §1

purple nutsedge = assay: Test B pre/postemergence purple nutsedge; assay type: in vivo, Cyperus rotundus
Summary of the method: as §1

rice = assay: Test B flood test rice; assay type: in vivo, Oryza sativa
Summary of the method: (§2)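 Flood test on plants grown to the 2-leaf stage; treated plants kept in greenhouse twelve to sixteen days, then visually rated against controls on a 0 (no effect) to 10 (complete control) scale.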

smallflower flatsedge = assay: Test B flood test smallflower flatsedge; assay type: in vivo, Cyperus difformis
Summary of the method: as §2

duck salad = assay: Test B flood test duck salad; assay type: in vivo, Heteranthera limosa
Summary of the method: as §2

[1] = Postemergence, Rate 62 g/ha, scale 0 to 10, 0 is no effect, 10 is complete control
[2] = Postemergence, Rate 250 g/ha, scale 0 to 10, 0 no effect, 10 complete control
[3] = Preemergence, Rate 62 g/ha, scale 0 to 10 (0 no effect, 10 complete control)
[4] = Preemergence, Rate 125 g/ha, scale 0 to 10 (0 no effect, 10 complete control)
[5] = Preemergence, Rate 250 g/ha, scale of 0 to 10 where 0 is no effect and 10 is complete control
[6] = Preemergence, Rate 500 g/ha, scale 0 to 10 (0 no effect, 10 complete control)
[7] = Postemergence, Rate 125 g/ha, scale of 0 to 10 where 0 is no effect and 10 is complete control
[8] = Rate 62 g/ha, Postemergence, scale of 0 to 10 where 0 is no effect and 10 is complete control
[9] = Rate 500 g/ha, Postemergence, scale 0 to 10, 0 no effect, 10 complete control
[10] = Rate 250 g/ha, Postemergence, scale 0 to 10, 0 is no effect, 10 is complete control
[11] = Preemergence, Rate 125 g/ha, 0 is no effect, 10 is complete control
[12] = Preemergence, scale of 0 to 10 where 0 is no effect and 10 is complete control
[13] = Postemergence, scale 0 to 10, 0 is no effect, 10 is complete control
[14] = Postemergence (flood test species), Rate 125 g/ha, scale of 0 to 10 where 0 is no effect and 10 is complete control
[15] = Rate 62 g/ha, Postemergence section, flood test species, scale of 0 to 10 where 0 is no effect and 10 is complete control
[16] = Rate 250 g/ha, Postemergence (flood test), scale 0 to 10, 0 is no effect, 10 is complete control
[17] = Rate 500 g/ha, listed under Postemergence (flood test species), scale 0 to 10, 0 no effect, 10 complete control

For CC(C)N(C(=O)n1oc(=O)n(C2CCCCC2)c1=O)c1ccc(F)cc1 [Compound 110], the “Bedstraw plant response rating” value (bedstraw; [1]) was 2, the “Bedstraw plant response rating” value (bedstraw; [2]) was 8 and the “Bedstraw plant response rating” value (bedstraw; [3]) was 0. The “Plant response rating, Bedstraw” value (bedstraw; [4]) was 4, the “Plant response rating, Bedstraw” value (bedstraw; [5]) was 5 and the “Bedstraw plant response rating” value (bedstraw; [6]) was 7. The “Blackgrass plant response rating” value (blackgrass; [7]) was 4, the “Blackgrass plant response rating” value (blackgrass; [2]) was 4 and the “Blackgrass plant response rating” value (blackgrass; [3]) was 0. For the same molecule, the “Plant response rating, Blackgrass” value (blackgrass; [4]) was 3, the “Plant response rating, Blackgrass” value (blackgrass; [5]) was 7 and the “Blackgrass plant response rating” value (blackgrass; [6]) was 7. The “Blackgrass plant response rating” value (blackgrass; [8]) was 1, the “Blackgrass plant response rating” value (blackgrass; [9]) was 8 and the “B. signalgrass plant response rating” value (surinam grass; [1]) was 0. The “B. signalgrass plant response rating” value (surinam grass; [2]) was 0, the “B. signalgrass plant response rating” value (surinam grass; [3]) was 3 and the “Plant response rating, B. signalgrass” value (surinam grass; [4]) was 7. For the same molecule, the “B. signalgrass plant response rating” value (surinam grass; [6]) was 7, the “B. signalgrass plant response rating” value (surinam grass; Rate 125 g/ha, Postemergence, scale 0 to 10, 0 no effect, 10 complete control) was 0 and the “B. signalgrass plant response rating” value (surinam grass; Rate 500 g/ha, Postemergence, scale of 0 to 10 where 0 is no effect and 10 is complete control) was 3. For the same molecule, the “Corn plant response rating” value (corn; [7]) was 0, the “Corn plant response rating” value (corn; [2]) was 0 and the “Corn plant response rating” value (corn; [3]) was 2. For the same molecule, the “Plant response rating, Corn” value (corn; [4]) was 3, the “Plant response rating, Corn” value (corn; [5]) was 4 and the “Corn plant response rating” value (corn; [6]) was 4. For the same molecule, the “Corn plant response rating” value (corn; [8]) was 0, the “Corn plant response rating” value (corn; [9]) was 4 and the “Crabgrass plant response rating” value (crabgrass; [7]) was 3. The “Crabgrass plant response rating” value (crabgrass; [2]) was 3, the “Crabgrass plant response rating” value (crabgrass; [3]) was 3 and the “Plant response rating, Crabgrass” value (crabgrass; [4]) was 3. The “Plant response rating, Crabgrass” value (crabgrass; [5]) was 9, the “Crabgrass plant response rating” value (crabgrass; [6]) was 10 and the “Crabgrass plant response rating” value (crabgrass; [8]) was 2. For the same molecule, the “Crabgrass plant response rating” value (crabgrass; [9]) was 8, the “Redroot pigweed plant response rating” value (pigweed; [7]) was 4 and the “Redroot pigweed plant response rating” value (pigweed; [3]) was 3. The “Plant response rating, Redroot pigweed” value (pigweed; [4]) was 6, the “Plant response rating, Redroot pigweed” value (pigweed; [5]) was 7 and the “Redroot pigweed plant response rating” value (pigweed; [6]) was 8. The “Redroot pigweed plant response rating” value (pigweed; [8]) was 3, the “Plant response rating, Redroot pigweed” value (pigweed; [10]) was 5 and the “Redroot pigweed plant response rating” value (pigweed; [9]) was 6. The “Rape plant response rating” value (rape; [7]) was 4, the “Rape plant response rating” value (rape; [2]) was 4 and the “Rape plant response rating” value (rape; [3]) was 0. For the same molecule, the “Plant response rating, Rape” value (rape; [4]) was 1, the “Plant response rating, Rape” value (rape; [5]) was 4 and the “Rape plant response rating” value (rape; [6]) was 8. The “Rape plant response rating” value (rape; [8]) was 2, the “Rape plant response rating” value (rape; [9]) was 6 and the “Soybean plant response rating” value (soybean; [7]) was 3. For the same molecule, the “Soybean plant response rating” value (soybean; [3]) was 1, the “Plant response rating, Soybean” value (soybean; [4]) was 5 and the “Plant response rating, Soybean” value (soybean; [5]) was 5. For the same molecule, the “Soybean plant response rating” value (soybean; [6]) was 6, the “Soybean plant response rating” value (soybean; [8]) was 3 and the “Plant response rating, Soybean” value (soybean; [10]) was 5. For the same molecule, the “Soybean plant response rating” value (soybean; [9]) was 7, the “Sugarbeets plant response rating” value (sugar beet; [7]) was 3 and the “Sugarbeets plant response rating” value (sugar beet; [3]) was 0. The “Sugarbeets plant response rating (0 to 10 scale)” value (sugar beet; [11]) was 1, the “Plant response rating, Sugarbeets” value (sugar beet; [12]) was 2 and the “Sugarbeets plant response rating” value (sugar beet; [6]) was 5. For the same molecule, the “Sugarbeets plant response rating” value (sugar beet; [8]) was 0, the “Plant response rating, Sugarbeets” value (sugar beet; [13]) was 3 and the “Sugarbeets plant response rating” value (sugar beet; [9]) was 3. For the same molecule, the “Velvetleaf plant response rating” value (velvetleaf; [7]) was 0, the “Velvetleaf plant response rating” value (velvetleaf; [3]) was 0 and the “Velvetleaf plant response rating (0 to 10 scale)” value (velvetleaf; [11]) was 5. For the same molecule, the “Plant response rating, Velvetleaf” value (velvetleaf; [12]) was 5, the “Velvetleaf plant response rating” value (velvetleaf; [6]) was 7 and the “Velvetleaf plant response rating” value (velvetleaf; [8]) was 0. The “Plant response rating, Velvetleaf” value (velvetleaf; [13]) was 1, the “Velvetleaf plant response rating” value (velvetleaf; [9]) was 2 and the “Wheat plant response rating” value (wheat; [7]) was 0. The “Wheat plant response rating” value (wheat; [3]) was 0, the “Wheat plant response rating (0 to 10 scale)” value (wheat; [11]) was 0 and the “Plant response rating, Wheat” value (wheat; [12]) was 0. The “Wheat plant response rating” value (wheat; [6]) was 3, the “Wheat plant response rating” value (wheat; [8]) was 0 and the “Plant response rating, Wheat” value (wheat; [13]) was 0. For the same molecule, the “Wheat plant response rating” value (wheat; [9]) was 1, the “Wild oats plant response rating” value (wild oat; [7]) was 0 and the “Wild oats plant response rating” value (wild oat; [3]) was 0. The “Wild oats plant response rating (0 to 10 scale)” value (wild oat; [11]) was 3, the “Plant response rating, Wild oats” value (wild oat; [12]) was 5 and the “Wild oats plant response rating” value (wild oat; [6]) was 5. For the same molecule, the “Wild oats plant response rating” value (wild oat; [8]) was 0, the “Plant response rating, Wild oats” value (wild oat; [13]) was 0 and the “Wild oats plant response rating” value (wild oat; [9]) was 2. The “Nutsedge plant response rating” value (purple nutsedge; [7]) was 0, the “Nutsedge plant response rating” value (purple nutsedge; [2]) was 0 and the “Nutsedge plant response rating” value (purple nutsedge; [3]) was 0. The “Plant response rating, Nutsedge” value (purple nutsedge; [4]) was 0, the “Plant response rating, Nutsedge” value (purple nutsedge; [5]) was 0 and the “Nutsedge plant response rating” value (purple nutsedge; [6]) was 0. The “Nutsedge plant response rating” value (purple nutsedge; [8]) was 0, the “Nutsedge plant response rating” value (purple nutsedge; [9]) was 0 and the “Rice plant response rating” value (rice; [14]) was 0. The “Rice plant response rating” value (rice; [15]) was 0, the “Plant response rating, Rice” value (rice; [16]) was 0 and the “Rice plant response rating” value (rice; [17]) was 0. The “S. Flatsedge plant response rating” value (smallflower flatsedge; [14]) was 0, the “S. Flatsedge plant response rating” value (smallflower flatsedge; [15]) was 0 and the “Plant response rating, S. Flatsedge” value (smallflower flatsedge; [16]) was 0. For the same molecule, the “S. Flatsedge plant response rating” value (smallflower flatsedge; [17]) was 0, the “Ducksalad plant response rating” value (duck salad; [14]) was 0 and the “Ducksalad plant response rating” value (duck salad; [15]) was 0. For the same molecule, the “Ducksalad plant response rating” value (duck salad; [17]) was 0 and the “Ducksalad plant response rating” value (duck salad; flood test, listed under Postemergence, Rate 250 g/ha, scale 0 to 10, 0 no effect, 10 complete control) was 0.
